The source of these data is ChEMBL document CHEMBL4765316, “Discovery of novel resorcinol diphenyl ether-based PROTAC-like molecules as dual inhibitors and degraders of PD-L1” (Eur J Med Chem, 2020).

Test [1] concerns NCI-H1299. Put plainly: Antiproliferative activity against human H1299 cells assessed as reduction in cell viability incubated for 48 hrs by CCK8 assay. In kind it is functional, cell-based. The settings on record: NCI-H1299, 48 h. (In general: Tetrazolium dyes change colour on reduction, which living cells bring about.)
In test [2] the test system is B16-F10. Put plainly: Antiproliferative activity against mouse B16-F10 cells assessed as reduction in cell viability incubated for 48 hrs by CCK8 assay. In kind it is functional, cell-based. The settings on record: B16-F10, 48 h.
For test [3], the system named is Jurkat. Nature of the test: Antiproliferative activity against human jurkat cells assessed as reduction in cell viability incubated for 48 hrs by CCK8 assay. In kind it is functional, cell-based.
Test [4] concerns A549. Put plainly: Antiproliferative activity against human A549 cells assessed as reduction in cell viability incubated for 48 hrs by CCK8 assay. In kind it is functional, cell-based. To be noted: A549, 48 h.
Test [5] concerns MDA-MB-231. Put plainly: Antiproliferative activity against human MDA-MB-231 cells assessed as reduction in cell viability incubated for 48 hrs by CCK8 assay. The settings on record: MDA-MB-231, 48 h. In kind it is functional, cell-based.
The target in test [6] is Programmed cell death protein 1/Programmed cell death 1 ligand 1 (Homo sapiens, UniProt Q9NZQ7). Nature of the test: Inhibition of PD-1/PDL1 protein-protein interaction (unknown origin) by HTRF assay. In kind it is protein-complex assay.
The species named for test [7] is Homo sapiens. Nature of the test: Inhibition of PD1/PDL1 protein-protein interaction in human PBMC-derived CD3-positive T cells co-cultured with human Hep3B cells expressing human PDL1/OS-8 assessed as increase in IFN-gamma secretion at 3.3 uM measured after 72 hrs by ELISA relative to control. More on the design: scale not given: the % may be the effect or the level left. Background: An ELISA detects its analyte on a solid surface through an enzyme-linked reagent.

The target in test [8] is T1, Protein cereblon/Programmed cell death 1 ligand 1 (Homo sapiens) (UniProt Q9NZQ7+Q96SW2). Nature of the test: Protac like activity at CRBN/PD-L1 in human MDA-MB-231 cells assessed as reduction in cell surface PD-L1 expression at 10 uM measured after 24 hrs by Western blotting analysis relative to control. In kind it is functional, cell-based. Further details: scale not given: the % may be the effect or the level left.

Test [9] concerns the target T1, Protein cereblon/Programmed cell death 1 ligand 1 (Homo sapiens). Put plainly: Protac like activity at CRBN/PD-L1 in human MDA-MB-231 cells assessed as reduction in cell surface PD-L1 expression at 10 uM measured after 24 hrs by flow cytometry relative to control. In kind it is functional, cell-based. More on the design: scale not given: the % may be the effect or the level left.

The target is the same in test [10]. Nature of the test: Protac like activity at CRBN/PD-L1 in human MDA-MB-231 cells assessed as reduction in cell surface PD-L1 expression at 1 uM measured after 24 hrs by Western blotting analysis relative to control. Further details: scale not given: the % may be the effect or the level left. In kind it is functional, cell-based. A general note: Immunoblotting shows a protein as a band on a membrane.

For test [11] the target is unchanged. Put plainly: Protac like activity at CRBN/PD-L1 in human MDA-MB-231 cells assessed as reduction in cell surface PD-L1 expression at 1 to 10 uM in presence of bafilomycin lysosomal measured after 24 hrs by Western blotting analysis relative to control. In kind it is functional, cell-based. The settings on record: dose 1-10 µM.
The species named for test [12] is Homo sapiens. Nature of the test: Inhibition of PD1/PDL1 protein-protein interaction in human PBMC-derived CD3-positive T cells co-cultured with human Hep3B cells expressing human PDL1/OS-8 assessed as increase in IFN-gamma secretion measured after 72 hrs by ELISA relative to control. To be noted: dose 3.3-10 µM.
In test [13] the target is T1, Protein cereblon/Programmed cell death 1 ligand 1 (Homo sapiens). Put plainly: Protac like activity at CRBN/PD-L1 in human MDA-MB-231 cells assessed as reduction in cell surface PD-L1 expression at 1 to 10 uM in presence of MG132 proteasome inhibitor measured after 24 hrs by Western blotting analysis relative to control. In kind it is functional, cell-based. The settings on record: dose 1-10 µM.

Calls of active or inactive are those of the source. No cut-off for these calls is given here.

The term IC50 denotes the concentration at which inhibition is half-maximal.

Chain of Programmed cell death protein 1/Programmed cell death 1 ligand 1 (Q15116 whole entry): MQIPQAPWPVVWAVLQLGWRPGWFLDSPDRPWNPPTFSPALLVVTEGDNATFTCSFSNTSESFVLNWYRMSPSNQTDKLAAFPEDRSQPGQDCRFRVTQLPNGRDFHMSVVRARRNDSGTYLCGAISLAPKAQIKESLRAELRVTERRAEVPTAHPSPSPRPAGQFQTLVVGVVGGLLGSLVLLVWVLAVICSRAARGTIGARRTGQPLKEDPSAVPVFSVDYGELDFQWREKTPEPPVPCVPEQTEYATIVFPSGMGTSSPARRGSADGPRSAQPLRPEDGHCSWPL
Chain of Programmed cell death protein 1/Programmed cell death 1 ligand 1 (Q9NZQ7 whole entry): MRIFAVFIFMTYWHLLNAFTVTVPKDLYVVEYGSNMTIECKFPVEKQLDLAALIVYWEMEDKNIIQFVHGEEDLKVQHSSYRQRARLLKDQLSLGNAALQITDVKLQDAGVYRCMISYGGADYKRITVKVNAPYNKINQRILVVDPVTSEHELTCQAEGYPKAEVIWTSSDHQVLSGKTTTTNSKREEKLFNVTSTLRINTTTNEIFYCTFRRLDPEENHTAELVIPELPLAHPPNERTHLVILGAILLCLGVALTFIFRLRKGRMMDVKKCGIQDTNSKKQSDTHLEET
T1 sequence (Q96SW2 whole entry, looked up): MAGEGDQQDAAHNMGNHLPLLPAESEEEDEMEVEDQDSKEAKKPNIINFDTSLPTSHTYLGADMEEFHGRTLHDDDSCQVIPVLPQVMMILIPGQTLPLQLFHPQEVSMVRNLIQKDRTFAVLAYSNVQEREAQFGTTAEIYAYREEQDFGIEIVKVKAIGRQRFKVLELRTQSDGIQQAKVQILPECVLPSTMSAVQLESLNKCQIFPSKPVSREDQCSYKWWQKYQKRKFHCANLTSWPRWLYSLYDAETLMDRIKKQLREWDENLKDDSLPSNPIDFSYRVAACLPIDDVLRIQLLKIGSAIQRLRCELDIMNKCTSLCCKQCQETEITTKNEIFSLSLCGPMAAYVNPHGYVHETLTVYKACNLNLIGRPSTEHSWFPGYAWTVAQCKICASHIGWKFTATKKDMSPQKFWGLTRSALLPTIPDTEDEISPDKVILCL
T1 sequence (Q9NZQ7 whole entry, looked up): as the sequence (Q9NZQ7 whole entry) above

For `Cc1c(COc2cc(OCc3cccc(C#N)c3)c(CN3CCCCC3C(=O)N3CCN(C(=O)CCC(=O)Nc4cccc5c4C(=O)N(C4CCC(=O)NC4=O)C5=O)CC3)cc2Cl)cccc1-c1ccc2c(c1)OCCO2` (configuration not stated), the IC50 in test [1] is above 10 µM; in test [2], 7.3 µM; in [3], above 10 µM; in [4], 9.2 µM; in [5], above 10 µM; in [6], 25.2 nM.

On to `Cc1c(COc2cc(OCc3cccc(C#N)c3)c(CN3CCCCC3C(=O)NCCCCCNc3cccc4c3C(=O)N(C3CCC(=O)NC3=O)C4=O)cc2Cl)cccc1-c1ccccc1` (configuration not stated), for which, in test [6], half-maximal inhibition (IC50) was put at 171 nM.

`Cc1c(COc2cc(OCc3cccc(C#N)c3)c(CN3CCCCC3C(=O)NCCNc3cccc4c3C(=O)N(C3CCC(=O)NC3=O)C4=O)cc2Cl)cccc1-c1ccc2c(c1)OCCO2` (configuration not stated): the 50% inhibitory concentration (IC50) in [6] was 144 nM.

`Cc1c(COc2cc(OCc3cccc(C#N)c3)c(CN3CCCCC3C(=O)NCCNC(=O)CCC(=O)Nc3cccc4c3C(=O)N(C3CCC(=O)NC3=O)C4=O)cc2Cl)cccc1-c1ccccc1` (configuration not stated) displayed an IC50 in test [6] of 98.8 nM.

`Cc1c(COc2cc(OCc3cccc(C#N)c3)c(CN3CCCCC3C(=O)NCCCCNc3cccc4c3C(=O)N(C3CCC(=O)NC3=O)C4=O)cc2Cl)cccc1-c1ccc2c(c1)OCCO2` (configuration not stated): the IC50 in test [1] is above 10 µM; in test [2] it was above 10 µM; in test [3], above 10 µM; in test [4], above 10 µM; in test [5], above 10 µM; in test [6], 103 nM.

Take `Cc1c(COc2cc(OCc3cccc(C#N)c3)c(CN3CCCCC3C(=O)N3CCN(C(=O)CCCC(=O)Nc4cccc5c4C(=O)N(C4CCC(=O)NC4=O)C5=O)CC3)cc2Cl)cccc1-c1ccccc1` (configuration not stated): the concentration for half-maximal inhibition (IC50) in test [1] is above 10 µM; in test [2], 10.8 µM; in test [3] it was above 11.7 µM; in [4], above 10 µM; in test [5] it was above 10 µM; in [6] it was 26.1 nM.

In test [6], `Cc1c(COc2cc(OCc3cccc(C#N)c3)c(CN3CCCCC3C(=O)NCCCCCNC(=O)CCCC(=O)Nc3cccc4c3C(=O)N(C3CCC(=O)NC3=O)C4=O)cc2Cl)cccc1-c1ccccc1` (configuration not stated) returned an IC50 above 200 nM.

Molecule `Cc1c(COc2cc(OCc3cccc(C#N)c3)c(CN3CCCCC3C(=O)NCCNc3cccc4c3C(=O)N(C3CCC(=O)NC3=O)C4=O)cc2Cl)cccc1-c1ccccc1` (configuration not stated) had an IC50 in test [6] of 118 nM.

As for `Cc1c(COc2cc(OCc3cccc(C#N)c3)c(CN3CCCCC3C(=O)NCCNC(=O)COCC(=O)Nc3cccc4c3C(=O)N(C3CCC(=O)NC3=O)C4=O)cc2Cl)cccc1-c1ccc2c(c1)OCCO2` (configuration not stated), the half-maximal inhibitory concentration (IC50) in test [6] was above 200 nM.

In turn, `Cc1c(COc2cc(OCc3cccc(C#N)c3)c(CN3CCCCC3C(=O)NCCCCNC(=O)CCCC(=O)Nc3cccc4c3C(=O)N(C3CCC(=O)NC3=O)C4=O)cc2Cl)cccc1-c1ccccc1` (configuration not stated) came in with a half-maximal inhibitory concentration (IC50) in test [6] of 121 nM.

In test [6], `Cc1c(COc2ccc(CN3CCCCC3C(=O)NCCNC(=O)CCCC(=O)Nc3cccc4c3C(=O)N(C3CCC(=O)NC3=O)C4=O)cc2Br)cccc1-c1ccccc1` (configuration not stated) returned an IC50 above 200 nM.

For `Cc1c(COc2cc(OCc3cccc(C#N)c3)c(CN3CCCCC3C(=O)NCCCCCCNc3cccc4c3C(=O)N(C3CCC(=O)NC3=O)C4=O)cc2Cl)cccc1-c1ccc2c(c1)OCCO2` (configuration not stated), the IC50 in test [6] was above 200 nM.

In test [6], `Cc1c(COc2ccc(CN3CCCCC3C(=O)N3CCN(C(=O)CCCC(=O)Nc4cccc5c4C(=O)N(C4CCC(=O)NC4=O)C5=O)CC3)cc2Br)cccc1-c1ccccc1` (configuration not stated) registered a half-maximal inhibitory concentration (IC50) above 200 nM.

On to `Cc1c(COc2cc(OCc3cccc(C#N)c3)c(CN3CCCCC3C(=O)NCCNC(=O)CCCC(=O)Nc3cccc4c3C(=O)N(C3CCC(=O)NC3=O)C4=O)cc2Cl)cccc1-c1ccc2c(c1)OCCO2` (configuration not stated), for which, in test [6], the concentration for half-maximal inhibition (IC50) is above 200 nM.

For `Cc1c(COc2ccc(CN3CCCCC3C(=O)NCCCCNc3cccc4c3C(=O)N(C3CCC(=O)NC3=O)C4=O)cc2Br)cccc1-c1ccccc1` (configuration not stated), the IC50 in test [6] came out at 197 nM.

The molecule `Cc1c(COc2cc(OCc3cccc(C#N)c3)c(CN3CCCCC3C(=O)NCCCCCCNc3cccc4c3C(=O)N(C3CCC(=O)NC3=O)C4=O)cc2Cl)cccc1-c1ccccc1` (configuration not stated) yielded a half-inhibitory concentration (IC50) in test [6] above 200 nM.

Regarding `Cc1c(COc2cc(OCc3cccc(C#N)c3)c(CN3CCCCC3C(=O)NCCCCNc3cccc4c3C(=O)N(C3CCC(=O)NC3=O)C4=O)cc2Cl)cccc1-c1ccccc1` (configuration not stated), the IC50 in test [1] is 10.5 µM; in test [2], above 10 µM; in test [3], above 10 µM; in [4], 8.2 µM; in test [5], above 10 µM; in test [6], 52.8 nM.

The molecule `Cc1c(COc2cc(OCc3cccc(C#N)c3)c(CN3CCCCC3C(=O)NCCNC(=O)CCCC(=O)Nc3cccc4c3C(=O)N(C3CCC(=O)NC3=O)C4=O)cc2Cl)cccc1-c1ccccc1` (configuration not stated) displayed an IC50 in [6] of 123 nM.

`Cc1c(COc2cc(OCc3cccc(C#N)c3)c(CN3CCCCC3C(=O)NCCCNc3cccc4c3C(=O)N(C3CCC(=O)NC3=O)C4=O)cc2Cl)cccc1-c1ccc2c(c1)OCCO2` (configuration not stated) came in with an IC50 in [6] of 135 nM.

In test [6], `Cc1c(COc2cc(OCc3cccc(C#N)c3)c(CN3CCCCC3C(=O)NCCNC(=O)CCCC(=O)Nc3ccc4c(c3)C(=O)N(C3CCC(=O)NC3=O)C4=O)cc2Cl)cccc1-c1ccc2c(c1)OCCO2` (configuration not stated) showed an IC50 above 200 nM.

Consider `Cc1c(COc2cc(OCc3cccc(C#N)c3)c(CN3CCCCC3C(=O)NCCCCCNc3cccc4c3C(=O)N(C3CCC(=O)NC3=O)C4=O)cc2Cl)cccc1-c1ccc2c(c1)OCCO2` (configuration not stated), for which the IC50 in test [6] is 193 nM.

Take `Cc1c(COc2cc(OCc3cccc(C#N)c3)c(CN3CCCCC3C(=O)NCCCNC(=O)CCC(=O)Nc3cccc4c3C(=O)N(C3CCC(=O)NC3=O)C4=O)cc2Cl)cccc1-c1ccccc1` (configuration not stated): the IC50 in test [6] was above 200 nM.

For `Cc1c(COc2cc(OCc3cccc(C#N)c3)c(CN3CCCCC3C(=O)N3CCN(C(=O)CCC(=O)Nc4cccc5c4C(=O)N(C4CCC(=O)NC4=O)C5=O)CC3)cc2Cl)cccc1-c1ccccc1` (configuration not stated), the 50% inhibitory concentration (IC50) in test [1] is 9.7 µM; in test [2], 11.4 µM; in test [3], above 10 µM; in test [4], above 10 µM; in test [5], above 10 µM; in [6], 44.5 nM.

As to `Cc1c(COc2cc(OCc3cccc(C#N)c3)c(CN3CCCCC3C(=O)NCCNC(=O)CCC(=O)Nc3cccc4c3C(=O)N(C3CCC(=O)NC3=O)C4=O)cc2Cl)cccc1-c1ccc2c(c1)OCCO2` (configuration not stated), in test [6], the half-inhibitory concentration (IC50) was above 200 nM.

Take `Cc1c(COc2cc(OCc3cccc(C#N)c3)c(CN3CCCCC3C(=O)NCCNC(=O)COCC(=O)Nc3cccc4c3C(=O)N(C3CCC(=O)NC3=O)C4=O)cc2Cl)cccc1-c1ccccc1` (configuration not stated): in [6], the IC50 was above 200 nM.

For `Cc1c(COc2cc(OCc3cccc(C#N)c3)c(CN3CCCCC3C(=O)N3CCN(C(=O)CCCC(=O)Nc4cccc5c4C(=O)N(C4CCC(=O)NC4=O)C5=O)CC3)cc2Cl)cccc1-c1ccc2c(c1)OCCO2` (configuration not stated), the Activity in test [7] was 215%; in test [8], 35%; in [9], 14%; in test [10], 21%; in [12], “Dose-dependent effect”. The half-maximal inhibitory concentration (IC50) is above 10 µM in test [1]; above 10 µM in test [2]; above 10 µM in test [3]; above 10 µM in test [4]; above 10 µM in test [5]; 39.2 nM in [6]. The outcome in test [11] was inactive. In test [13], the outcome was Active.

`Cc1c(COc2cc(OCc3cccc(C#N)c3)c(CN3CCCCC3C(=O)NCCNC(=O)CCCC(=O)Nc3ccc4c(c3)C(=O)N(C3CCC(=O)NC3=O)C4=O)cc2Cl)cccc1-c1ccccc1` (configuration not stated) returned an IC50 in [6] of 102 nM.

`Cc1c(COc2cc(OCc3cccc(C#N)c3)c(CN3CCCCC3C(=O)NCCCNc3cccc4c3C(=O)N(C3CCC(=O)NC3=O)C4=O)cc2Cl)cccc1-c1ccccc1` (configuration not stated) registered an IC50 in test [6] of 97.3 nM.

Take `Cc1c(COc2cc(OCc3cccc(C#N)c3)c(CN3CCCCC3C(=O)O)cc2Cl)cccc1-c1ccc2c(c1)OCCO2` (configuration not stated): in [6], half-maximal inhibition (IC50) was put at 56.6 nM.

In test [6], `Nc1cccc2c1C(=O)N(C1CCC(=O)NC1=O)C2=O` (configuration not stated) [POMALIDOMIDE] showed an IC50 above 10 nM.
